pKd: −log10 of the molar value. Converted amounts (≈) assume the structure as drawn. Like-named read-outs stand apart in the source and are kept apart here. Values belong to the molecule of their own block, whether it stands above or below them.
Tests used:
[1] = biological target: Nucleosome assembly protein 1 (NAP1) (Plasmodium knowlesi, UniProt A0A384KYS3); test: Thermal shift (thermal melt) assay, Sypro orange; format: binding, P. knowlesi; settings: for pKd: approximate, computed from the thermal shift
Description: (§1) High throughput thermal shift assays were carried out following established guidelines (Additional file 1: Table S1). Protein melting curves were obtained from samples aliquoted in 96-well plates using a RealPlex quantitative PCR instrument from Eppendorf (Eppendorf, NY, USA), with Sypro orange dye from Invitrogen as the fluorescent probe. A uniform final concentration of 5 X (supplied as a 5000 X stock solution) was used in all experiments. The dye was excited at 465 nm and emission recorded at 580 nm using the instrument’s filters. A heating ramp of 1°C/min from 25°C to 74°C was used, and one data point acquired for each degree increment. For standardization, different buffers and pH were checked. Thereafter, 100 mM HEPES pH 7.3 and 150 mM NaCl were used in all unfolding experiments. The volume of each reaction was 20 μl, and appropriate dye and protein controls were included. All experiments were done with a minimum of two replicates, with the mean value considered for further analysis. Several drugs/small molecules interact with Sypro orange and lead to aberrant signal enhancements. An additional control to rule out drug-dye interaction was carried out with all the constituents kept constant except for the protein of interest. The protein/protein-drug curves were reported after subtracting the respective dye alone/drug-dye curves.
(§2) Each melting curve was assigned a quality score (Q), the ratio of the melting-associated increase in fluorescence (ΔFmelt) to the total fluorescence range (ΔFtotal). Q = 1 is a high-quality curve, while Q = 0 indicates no thermal transition. Though an arbitrary Q value cutoff was not applied to judge curve quality, the curves were manually curated with Q values reported. […] These were ignored (see Table 1).
(§3) Subsequent to standardization, (see SI Methods), the validity of the top 1% of […]^comb’s predictions on the test set of eight diverse proteins was examined. To be conservative, we focused only on those protein/ligand pairs showing single sigmoidal thermal transition curves. The fit to Boltzmann’s equation (Eq. 1) was employed to estimate the melting temperature from the observed intensity, I.
(§4) (4) I=Imin+Imax-Imin/1+e^Tm-T/a
(§5) Imin and Imax are the minimum and maximum intensities; a denotes the slope of the curve at the transition midpoint temperate, Tm. To estimate thermodynamic parameters, both van’t Hoff and Gibbs-Helmholtz analyses were done. To estimate the approximate ligand-binding affinity at Tm, Eq. (2) from reference was used with slight modifications; ΔCp is ignored.
(§6) (5) KLTm=exp-ΔH/R1/Tm-1/To/L
(§7) KL(Tm) is the ligand association constant and [L] is the free ligand concentration at Tm ([LTm] ~ [L]total, when [L]total > > the total concentration of protein. KD is the inverse of KL(Tm).
(§8) Thermal unfolding of the eight benchmark proteins was carried out in a 20 μl reaction mix with 100 mM HEPES pH 7.3, 150 mM NaCl, 5 X Sypro orange dye, 10 μM protein and 1 mM of all the predicted ligands.

[2] = biological target: Ubiquitin conjugating enzyme (UCE) (Plasmodium falciparum, UniProt Q8I607); test: Thermal shift (thermal melt) assay, Sypro orange; format: binding, P. falciparum; settings: for pKd: approximate, computed from the thermal shift, read-out: KD (Approx)
Description: as §1, §2, §3, §4, §5, §6, §7, §8

[3] = biological target: T1, Tryptophanyl tRNA synthetase (TrpRS) (Homo sapiens, UniProt P23381); test: Thermal shift (thermal melt) assay, Sypro orange; format: binding, H. sapiens; settings: for Q (quality score): ratio ΔFmelt/ΔFtotal
T1 sequence (P23381 1-471): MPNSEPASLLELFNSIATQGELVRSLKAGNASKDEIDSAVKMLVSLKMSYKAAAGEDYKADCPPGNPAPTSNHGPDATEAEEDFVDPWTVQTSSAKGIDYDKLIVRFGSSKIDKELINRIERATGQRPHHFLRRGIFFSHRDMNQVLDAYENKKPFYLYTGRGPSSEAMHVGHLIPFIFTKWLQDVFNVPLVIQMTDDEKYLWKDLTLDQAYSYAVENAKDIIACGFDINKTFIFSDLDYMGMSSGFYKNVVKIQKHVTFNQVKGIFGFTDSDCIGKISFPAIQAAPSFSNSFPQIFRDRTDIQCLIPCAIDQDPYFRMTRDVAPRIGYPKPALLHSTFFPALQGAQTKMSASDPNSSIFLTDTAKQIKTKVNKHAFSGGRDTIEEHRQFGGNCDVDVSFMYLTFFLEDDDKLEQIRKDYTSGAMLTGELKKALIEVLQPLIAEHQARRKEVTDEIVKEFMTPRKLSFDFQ
Description: as §1, with “The dye was excited at 465 nm and emission recorded at 580 nm using the instrument’s filters. A heating ramp of 1°C/min from 25°C to 74°C was used, and one data point acquired for each degree increment.” left out
(§9) Each melting curve was assigned a quality score (Q), the ratio of the melting-associated increase in fluorescence (ΔFmelt) to the total fluorescence range (ΔFtotal). Q = 1 is a high-quality curve, while Q = 0 indicates no thermal transition. Though an arbitrary Q value cutoff was not applied to judge curve quality, the curves were manually curated with Q values reported.
as §3, §4, §5, §6, §7, §8

[4] = test system: HCT-116 colon carcinoma cell line; test: Cytotoxic assay on cancer cell line; format: cell-based
Description: Antimicrobial and anti-cancer tests were performed as in [80].

[5] = biological target: Catalytic subunit of cAMP-dependent protein kinase (cDPK) (Homo sapiens, UniProt P17612); test: Thermal shift (thermal melt) assay, Sypro orange; format: binding, H. sapiens; settings: for ΔTm: Table S5, 1 mM ligand; for pKd: approximate, computed from the thermal shift, read-out: KD (Approx)
Description: as §1, §2, §3, §4, §5, §6, §7, §8

[6] = biological target: E. coli dihydrofolate reductase (DHFR) (Escherichia coli, UniProt P0ABQ4); test: biochemical; format: binding; settings: Table S3; for pKd: computed from the thermal shifts obtained, read-out: KD (Approx); for Q (quality score): ratio ΔFmelt/ΔFtotal of the melting curve
Description: as §1, with “The dye was excited at 465 nm and emission recorded at 580 nm using the instrument’s filters. A heating ramp of 1°C/min from 25°C to 74°C was used, and one data point acquired for each degree increment.” left out
as §9, §3, §4, §5, §6, §7, §8

[7] = thermal shift, 1 mM ligand, 10 μM protein

Chain of E. coli dihydrofolate reductase (DHFR) (P0ABQ4 whole entry): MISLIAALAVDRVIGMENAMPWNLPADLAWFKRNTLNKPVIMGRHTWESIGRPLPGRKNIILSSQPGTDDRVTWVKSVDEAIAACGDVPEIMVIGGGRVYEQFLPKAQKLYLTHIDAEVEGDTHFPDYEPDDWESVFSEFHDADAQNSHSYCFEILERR
Chain of Ubiquitin conjugating enzyme (UCE) (Q8I607 1-147): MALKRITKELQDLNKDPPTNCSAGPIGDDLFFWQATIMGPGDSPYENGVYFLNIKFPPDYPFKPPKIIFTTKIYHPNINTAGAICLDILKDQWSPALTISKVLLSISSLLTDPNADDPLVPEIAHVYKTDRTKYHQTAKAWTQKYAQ
Chain of Nucleosome assembly protein 1 (NAP1) (A0A384KYS3 entry or part of it): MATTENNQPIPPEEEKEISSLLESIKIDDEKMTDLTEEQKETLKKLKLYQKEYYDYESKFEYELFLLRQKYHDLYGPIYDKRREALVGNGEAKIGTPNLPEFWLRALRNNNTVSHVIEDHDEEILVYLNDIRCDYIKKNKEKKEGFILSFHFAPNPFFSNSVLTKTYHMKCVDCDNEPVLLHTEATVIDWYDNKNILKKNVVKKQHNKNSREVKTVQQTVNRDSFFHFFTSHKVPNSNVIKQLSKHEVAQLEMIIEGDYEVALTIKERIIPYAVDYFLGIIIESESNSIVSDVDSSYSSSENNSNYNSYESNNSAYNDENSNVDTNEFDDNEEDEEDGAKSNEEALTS

SMILES: O=C1c2cc(O)c(O)cc2OC(c2ccc(O)c(O)c2)C1O (stereo not drawn) [NSC 36398]
Q (quality score of melting curve, ΔFmelt/ΔFtotal) [1]: 0.2
pKd ([1]; read-out: KD): 3.74
pKd ([1]; read-out: KD (Approx)): 3.74
ΔTm [1, 7]: 2.21 °C

SMILES: O=C1C[C@@H](c2ccc(O)cc2)Oc2cc(O)cc(O)c21 [NSC 34875]
Q (quality score of melting curve, ΔFmelt/ΔFtotal) [1]: 0.6
ΔTm ([1]; Table S5, 1 mM ligand): 1.74 °C
pKd ([1]; read-out: KD (Approx)): 3.65

SMILES: O=C(Nc1ccc(Cl)cc1)c1cc2c(cc1O)[nH]c1ccccc12 [NSC 50651]
Q (quality score of melting curve, ΔFmelt/ΔFtotal) [2]: 0.13
ΔTm ([2]; Table S5, 1 mM ligand): 2.25 °C
pKd ([2]; listed as 50651): 3.71
pKd ([2]; listed as NSC50651): 3.71

Q (quality score) ([3]; Table S4, TrpRS): 1.3
ΔTm [3, 7]: 14.57 °C
SMILES: CCN(CC)CCNC(=O)c1c(C)[nH]c(/C=C2\C(=O)Nc3ccc(F)cc32)c1C [NSC 750690, Sunitinib, reference compound]
IC50 ([4]; Homo sapiens, HCT-116, inhibitory concentration for 50% growth inhibition, read-out: HCT-116 (IC-50)): 1.1 µg/mL (≈ 2.76 µM)
HCT-116 (IC-50) ([4]; inhibitory concentration for 50% growth inhibition): 1.11 µg/mL

SMILES: Nc1ccc(-c2nc3nc(N)nc(N)c3nc2-c2ccc(N)cc2)cc1 [NSC 61642, 6,7-bis(4-aminophenyl) pteridine-2,4-diamine, reference compound]
Q (quality score of melting curve, ΔFmelt/ΔFtotal) [5]: 0.4
ΔTm [5]: 0.71 °C
pKd [5]: 3.56
pKd [6]: ~5.69
Q (quality score) [6]: 0.6

Q (quality score of melting curve, ΔFmelt/ΔFtotal) [5]: 0.5
ΔTm [5]: 1.01 °C
pKd [5]: 3.70
SMILES: Cc1cc2nc(CS)[nH]c2cc1C [NSC 97104]

SMILES: Nc1ccc(NC(=O)c2ccc(C(=O)Nc3ccc(N)cc3)cc2)cc1 [NSC 55152]
pKd ([3]; Table S4, TrpRS, computed from the thermal shifts obtained, read-out: KD (Approx)): ~4.40
ΔTm ([3]; Table S4, TrpRS, in °C (unit assumed)): 6.17
Q (quality score) ([3]; Table S4, TrpRS): 0.95
pKd ([3]; approximate, computed from the thermal shift, read-out: KD): 4.40
pKd [6]: ~4.13
Q (quality score) [6]: 0.2
ΔTm ([6]; thermal shift, in °C (unit assumed)): 5.89

Reference: paper PMC4038399, “Experimental validation of [sequence]^comb virtual ligand screening results for eight proteins yields novel nanomolar and micromolar binders” (Journal of Cheminformatics, 2014)
